Experimental data: PubChem BioAssay (NCI)
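96-well plates; 48 h exposure; 5 concentrations. Endpoints by linear interpolation between flanking doses. Not reached: highest tested concentration assigned. Here, GI50 denotes the concentration required for 50% inhibition of growth. TGI: concentration producing complete growth inhibition.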

Key:
Test in all cases: growth of human tumour cells (NCI), 48 h
[1] = system: SF-295 CNS
[2] = system: T-47D breast
[3] = system: IGROV1 ovarian
[4] = system: OVCAR-4 ovarian
[5] = system: NCI-H226 lung
[6] = system: HOP-62 NSCLC
[7] = system: U251 CNS
[8] = system: KM12 colon
[9] = system: MCF7 breast
[10] = system: EKVX NSCLC
[11] = system: CAKI-1 renal
[12] = system: HL-60(TB) leukemia
[13] = system: SK-OV-3 ovarian
[14] = system: COLO 205 colon
[15] = system: SF-268 CNS
[16] = system: OVCAR-3 ovarian
[17] = system: RXF 393 renal
[18] = system: NCI-H522 lung
[19] = system: SK-MEL-5 melanoma
[20] = system: MALME-3M melanoma
[21] = system: RPMI-8226 leukemia
[22] = system: SK-MEL-2 melanoma
[23] = system: CCRF-CEM leukemia
[24] = system: MOLT-4 leukemia
[25] = system: MDA-MB-435
[26] = system: DU-145 prostate
[27] = system: NCI-H23 lung
[28] = system: PC-3 prostate
[29] = system: LOX IMVI melanoma
[30] = system: ACHN renal
[31] = system: SF-539 CNS
[32] = system: K-562 leukemia
[33] = system: NCI-H460 lung
[34] = system: NCI/ADR-RES ovarian
[35] = system: BT-549 breast
[36] = system: TK-10 renal
[37] = system: M14 melanoma
[38] = system: 786-0 renal
[39] = system: OVCAR-5 ovarian
[40] = system: SNB-75 CNS
[41] = system: UACC-62 melanoma
[42] = system: MDA-MB-231 breast
[43] = system: OVCAR-8 ovarian
[44] = system: HCT-116 colon
[45] = system: HT29 colon
[46] = system: UO-31 renal
[47] = system: SW-620 colon
[48] = system: HOP-92 NSCLC
[49] = system: SK-MEL-28 melanoma
[50] = system: SN12C renal
[51] = system: SNB-19 CNS
[52] = system: HS 578T breast
[53] = system: HCT-15 colon
[54] = system: A549 NSCLC

In the case of `CN(NC(=O)CC(=O)NN(C)C(=S)c1ccc(Cl)cc1)C(=S)c1ccc(Cl)cc1`, the GI50 [1] is reported as 3.14 µM, the TGI [1] is reported as 19.4 µM and the GI50 [2] is reported as 21.8 µM. It also gave a TGI [2] greater than 100 µM, a GI50 [3] of 19.8 µM and a TGI [3] greater than 100 µM. For the same compound, the GI50 [4] was 19.6 µM, the TGI [4] was greater than 100 µM and the GI50 [5] was 13.2 µM. The TGI [5] was 45.3 µM, the GI50 [6] was 20.5 µM and the TGI [6] was 70.8 µM. The GI50 [7] was 21.3 µM, the TGI [7] was greater than 100 µM and the GI50 [8] was 16.9 µM. It also gave a TGI [8] of 66.4 µM, a GI50 [9] of 18 µM and a TGI [9] greater than 100 µM. It also gave a GI50 [10] of 18.8 µM, a TGI [10] greater than 100 µM and a GI50 [11] of 13.6 µM. For the same compound, the TGI [11] was greater than 100 µM, the GI50 [12] was 25.1 µM and the TGI [12] was 71.7 µM. The GI50 [13] was 34.7 µM, the TGI [13] was 83.8 µM and the GI50 [14] was 23 µM. For the same compound, the TGI [14] was 48.5 µM, the GI50 [15] was 19.6 µM and the TGI [15] was greater than 100 µM. The GI50 [16] was 13 µM, the TGI [16] was 46.4 µM and the GI50 [17] was 14.7 µM. For the same compound, the TGI [17] was 65.4 µM, the GI50 [18] was 19.1 µM and the TGI [18] was 60.2 µM. The GI50 [19] was 15.4 µM, the TGI [19] was 46 µM and the GI50 [20] was 13.2 µM. For the same compound, the TGI [20] was 52 µM, the GI50 [21] was 12.6 µM and the TGI [21] was greater than 100 µM. For the same compound, the GI50 [22] was 22.7 µM, the TGI [22] was 81.8 µM and the GI50 [23] was 7.94 µM. The TGI [23] was greater than 100 µM, the GI50 [24] was 17.6 µM and the TGI [24] was greater than 100 µM. It also gave a GI50 [25] of 24.4 µM, a TGI [25] greater than 100 µM and a GI50 [26] of 21.9 µM. It also gave a TGI [26] greater than 100 µM, a GI50 [27] of 12.1 µM and a TGI [27] of 46.2 µM. It also gave a GI50 [28] of 10.7 µM, a TGI [28] of 56.5 µM and a GI50 [29] of 20.2 µM. It also gave a TGI [29] greater than 100 µM, a GI50 [30] of 18.1 µM and a TGI [30] of 85.8 µM. The GI50 [31] was 27.6 µM, the TGI [31] was greater than 100 µM and the GI50 [32] was 16.4 µM. The TGI [32] was greater than 100 µM, the GI50 [33] was 4.38 µM and the TGI [33] was 63.7 µM. It also gave a GI50 [34] of 13.6 µM, a TGI [34] of 63.7 µM and a GI50 [35] of 12.9 µM. It also gave a TGI [35] of 53 µM, a GI50 [36] of 23 µM and a TGI [36] greater than 100 µM. It also gave a GI50 [37] of 14.1 µM, a TGI [37] of 59.3 µM and a GI50 [38] of 24.6 µM. It also gave a TGI [38] greater than 100 µM, a GI50 [39] of 25.9 µM and a TGI [39] greater than 100 µM. It also gave a GI50 [40] of 22.5 µM, a TGI [40] greater than 100 µM and a GI50 [41] of 11.2 µM. It also gave a TGI [41] of 30.2 µM, a GI50 [42] of 19.8 µM and a TGI [42] of 65.2 µM. The GI50 [43] was 23.7 µM, the TGI [43] was greater than 100 µM and the GI50 [44] was 10.7 µM. It also gave a TGI [44] greater than 100 µM, a GI50 [45] of 23.6 µM and a TGI [45] greater than 100 µM. The GI50 [46] was 10.4 µM, the TGI [46] was greater than 100 µM and the GI50 [47] was 29.3 µM. For the same compound, the TGI [47] was greater than 100 µM, the TGI [48] was 9.05 µM and the GI50 [49] was 15 µM. The TGI [49] was 54.5 µM, the GI50 [50] was 18.6 µM and the TGI [50] was greater than 100 µM. It also gave a GI50 [51] of 23.1 µM, a TGI [51] greater than 100 µM and a GI50 [52] of 17.7 µM. For the same compound, the TGI [52] was 48.7 µM, the GI50 [53] was 7.72 µM and the TGI [53] was greater than 100 µM. For the same compound, the GI50 [54] was 3.86 µM and the TGI [54] was 71.7 µM.
